Measurements as given in paper PMC5657837 (Journal of Insect Science, 2014).

Test system: midgut α-amylase
Assay: α-amylase activity of larval midgut homogenate
Assay type: biochemical, Mythimna separata

O=C1CCC(=O)N1Br [NBS, N-bromosuccinimide]
Ki: 2530 nM
